Reference: patent publication US12622965B2, “Therapeutical tools and methods using temperature-sensitive receptors for treating blindness” (FRIEDRICH MIESCHER INSTITUTE FOR BIOMEDICAL RESEARCH, priority 2020, dated 2026)

Key:
[1] = test system: HEK cells expressing TRPV1.459-6x-His, TRPV1.465-6x-His or untagged TRPV1; test: whole cell voltage clamp in HEK cells expressing TRPV1 variants, activated by capsaicin; assay type: cell-based; conditions: TRPV1 agonist capsaicin 2.5 μM bath applied; voltage clamp −60 mV; mean±s.e.m
From the text: First, they developed a system based on rat TRPV1 channels and gold nanorods with absorption maxima at 915 nm. 915 nm was selected to ensure low water absorption. […] To measure if tagged channels are functional, they performed whole cell voltage clamp in HEK cells expressing TRPV1.459-6x-His, TRPV1.465-6x-His or untagged TRPV1 while activating the channels by TRPV1 agonist capsaicin. The size of evoked currents were similar between TRPV1.465-6x-His and TRPV1 (Mann-Whitney U test, P=0.8551; TRPV1.465-6x-His, 1633±164 pA, […] 15 cells; TRPV1, 1766±276 pA, n=14 cells; mean±s.e.m), but less in TRPV1.459-6x-His (Mann-Whitney U test, P=0.0207; TRPV1.459-6x-His, 976±118 pA, n=19 cells; mean±s.e.m). Therefore, they used TRPV1.465-6x-His (rTRPV1) in subsequent experiments.
For HEK293T cell experiments, cells were maintained at 37° C. on poly-D-lysine/laminin coated coverslips (GG-12-Laminin, Neuvitro) in DMEM supplemented with 10% fetal bovine serum. Cells were transfected with plasmids containing TRP variants using branched PEI. Cells were perfused in oxygenated Ringer's medium containing 110 mM NaCl, 2.5 mM KCl, 1 mM CaCl2, 1.6 mM MgCl2, 10 mM D-glucose and 22 mM NaHCO3 at ˜36° C. for the duration of the experiment. […] Data was analyzed offline using MATLAB (MathWorks).

[2] = test system: cone photoreceptors of the rd1 mouse; test: AAV transduction of rd1 mouse cones after subretinal injection, quantified by immunofluorescence and confocal imaging; assay type: in vivo
From the text: The inventors targeted rTRPV1 to cone photoreceptors of the Pde6brd1 (known as rd1) mouse via subretinal injection of adeno-associated virus (AAV) and a photoreceptor-specific promoter (mCar) to restrict expression. Rd1 mice have severe photoreceptor degeneration with complete loss of rod and dysfunctional light-insensitive cone photoreceptors by four weeks of age postnatal (P28). 55±10% of rd1 cones expressed rTRPV1 in the cell membrane (n=12,813 cones mm−2, n=7042 TRPV1 positive cones mm−2, mean±s.d). 98±1.6% of rat TRPV1 positive cells were cones (n=7216 TRPV1 positive cells mm−2, n=7042 TRPV1 positive cones mm−2, mean±s.d).
Ocular injections to deliver AAVs expressing TRP variants and/or functionalized nanorods were performed on 4 week old mice anesthetized with 2.5% isoflurane. A small incision was made with a sharp 30 gauge needle at the nasal corneo-scleral junction and AAV and/or nanorods were co-injected through this incision into the subretinal space using a blunt 5 μL Hamilton syringe held in a micromanipulator. For cone photoreceptor activity monitoring, cone specific AAV-ProA7-GCaMP6s (11) was co-injected subretinally with rTRPV1 and/or nanorods. A maximum volume of 2.5 μL was administered per eye. For primary visual cortex activity monitoring, AAV-pCAG-FLEX2-tTA2 was delivered by intravenous retro-orbital injection as previously described by D. Hillier et al. Nat Neurosci 20, 960-968 (2017) 2 weeks after initial ocular injection of rTRPV1 and nanorods. […]
A Zeiss LSM 700 laser scanning confocal microscope was used to acquire images of antibody stained cells and tissues with an EC Plan-Neofluar 40×/1.30 oil M27 objective at up to 4 excitation laser lines according to secondary antibody specification. Expression was assessed from 1024×1024 pixel images in a z-stack with 0.75 μm steps. […] AAV transduction was quantified from retinal wholemounts. […] Quantification was performed separately for outer nuclear layer, inner nuclear layer and ganglion cell layer.

[3] = AAV, mCar promoter, subretinal injection, mean±s.d

## TRPV1.465-6x-His: rat TRPV1 channel with 6x-His epitope tag inserted in the first extracellular loop after amino acid 465; delivered by AAV
[1]
  size of evoked currents: 1633±164 pA
[2]; [3]
  channel (TRPV1 or Ollas) positive cells that were cones: 98±1.6%
  rd1 cones expressing the channel in the cell membrane: 55±10%
[2]; rd1 mouse
  expression of the 6x-His tag in TRPV1 positive cones: All TRPV1 positive cones expressed the 6x-His tag
